Reference: PubChem BioAssay AID179 (DTP/NCI, 2004)
Values joined by “and” are separate entries in the source; they are usually repeats but may differ in a detail not shown here. Equal entries are not always repeated. Active and inactive are the calls of the source.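 Rule for the calls: active = compounds giving half or more protection of infected cells from virus-caused growth loss, again on retest; inactive = the rest.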

Tested on: CEM cells HIV-1 protection, formazan growth assay
Assay: NCI AIDS Antiviral Assay
Details: for IC50: measured here: growth of uninfected CEM cells
Summary of the method: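 Human CEM cells, uninfected and HIV-1-infected, exposed to five drug concentrations; growth measured by soluble formazan assay and scored as percent protection from infection, with protecting compounds retested.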

Row | Compound | outcome | EC50 [µM] | IC50
1 | C/C(=N\NC(N)=S)c1ccc(/C(C)=N/NC(N)=S)cc1 | inactive | – | –
2 | CN(Cc1nc2c(N)nc(N)nc2[nH]c1=O)c1ccc(C(=O)NC(CCC(=O)O)C(=O)O)cc1 (centres undefined) | – | > 200 | 10.7 µM and 8.13 µM
3 | CCOC(=O)C(CCC1=NC(C)(C)CC(C)O1)C(=O)OCC (centres undefined) | – | > 200 | > 200 µM
4 | COc1ccc(C[C@H]2COC(=O)[C@@H]2Cc2ccc(O)c(O)c2)cc1OC | – | > 200 | 19.5 µM
5 | CC12CC3CC(C)(C1)CC(CN=C(N)CS)(C3)C2 | – | > 200 | 31.6 µM
6 | COC(=O)[C@]1(C)CCC[C@@]2(C)C1CC[C@@]13C=C(C(C)C)[C@@H](CC1=O)CC23 (some centres undefined) | – | > 200 | 36.3 µM
7 | CC(NNC(=O)c1ccncc1)c1ccc(Cl)c(Cl)c1 (centres undefined) | – | > 200 | 107 µM
8 | CSc1ccc(/C=C/c2ccnc3ccccc23)cc1 | – | > 13.5 | > 13.5 µM
9 | O=C(CCC(=O)C1CCC/C1=N/O)Nc1ccc(Cl)cc1 (centres undefined) | – | > 302 | 1.12 µM
10 | COc1ccc2nc3cc(Cl)ccc3c(Nc3ccc(S(=O)(=O)Nc4nccs4)cc3)c2c1 | – | > 9.77 | > 9.77 µM
11 | NC1=CN(Cc2ccccc2)C2=N/C(=C\c3ccccc3)C(=O)N12 | – | > 200 | 77.6 µM
12 | CN1CNc2nc(N)n(C)c(=O)c2C1 | – | > 200 | > 200 µM
13 | O=C1c2ccncc2C(=O)c2c1[nH]c1ccccc21 | – | > 200 | 3.16 µM
14 | Oc1cc(CN2CCOCCOCCOCCOCC2)c(O)cc1CN1CCOCCOCCOCCOCC1 | – | > 437 | 13.2 µM
15 | NC(N)=NS(=O)(=O)c1ccc(-n2sc3ccccc3c2=O)cc1 | – | 4.37 | 19.1 µM
16 | CC(O)C(NC(=O)C1CSSCC(NC(=O)C(Cc2ccccc2)NC(=O)OCC2c3ccccc3-c3ccccc32)C(=O)NC(Cc2ccccc2)C(=O)NC(Cc2cn(C=O)c3ccccc23)C(=O)NC(CCCCNC(=O)OCC2c3ccccc3-c3ccccc32)C(=O)NC(C(C)O)C(=O)N1)C(N)=O (centres undefined) | – | > 50.1 | 6.46 µM
17 | CCC1(C)NN=c2s/c(=C/c3ccc(OC)cc3)c(=O)n2N1 (centres undefined) | inactive | – | –

Row | Compound | outcome | EC50 [µM] | IC50
18 | CC1(C)OC(COP2OCCO2)[C@H](COP2OCCO2)O1 (some centres undefined) | – | > 200 | > 200 µM
19 | CCc1c(Cc2cc(C)cc(C)c2)n(COCCO[Si](C)(C)C(C)(C)C)c(=O)[nH]c1=O | – | 0.646 | 11.5 µM
20 | O=C1c2ccccc2-c2cc3ccccc3c(=O)n21 | inactive | – | –
21 | C=CCN1CCC(c2cc(C(=O)OCC)[nH]c2-c2cc(C)no2)C1=O (centres undefined) | – | > 200 | > 200 µM
22 | O=C(O)CCC(=O)Nc1ccc2c(c1)S(=O)(=O)N(CC(=O)O)C2=O | – | > 200 | > 200 µM
23 | N#CC12C(=O)N3C(=NC(c4ccco4)NC3c3ccco3)C1(C#N)C(c1ccco1)NC1=C2CCCC1 (centres undefined) | – | > 200 | > 200 µM
24 | CCOC(=O)c1cn(C)nc1N/C(C)=C\C(=O)c1ccccc1 | – | > 200 | 75.9 µM
25 | O=C(O)c1cc(I)cc(I)c1O.O=[N+]([O-])C1CCC(O)C2[N-]CCCC21.[Cu+] (centres undefined) | – | > 200 | 5.62 µM
26 | Nc1nc2ccc(Sc3ccc4nc(N)[nH]c(=O)c4c3)cc2c(=O)[nH]1 | – | > 100 | > 100 µM
27 | CC(=O)OC1COC(Nn2c(=O)[nH]c3ccccc3c2=O)C(OC(C)=O)C1OC(C)=O (centres undefined) | – | > 200 | > 200 µM
28 | COc1ccc(/C=C(/C(C)=O)c2ccccc2)cc1 | – | > 74.1 | > 74.1 µM
29 | O=C(CC(=O)C1CCOC1=O)C(=O)Nc1ccc(Cl)cc1 (centres undefined) | inactive | – | –
30 | CN1C(=O)C2CCCN2C(=O)C1(C)NC(=O)OCc1ccccc1 (centres undefined) | – | > 269 | > 269 µM
31 | CC1CC/C(=C\c2ccc(F)cc2)C2=C1C(c1ccc(F)cc1)n1c(s/c(=C\c3ccc(Cl)cc3)c1=O)=N2 (centres undefined) | inactive | – | –
32 | COC(=O)C12C34C=CC5(CCC6(C=CC1(CC3)O6)C52C(=O)OC)O4 (centres undefined) | inactive | – | –
33 | COc1ccc2c(c1OC)C1=NCCc3c(OC)c(OC)c(OC)c-2c31 | inactive | – | –
